Measured values: the supplement of paper PMC11451515

Assays:
Settings in all cases: 48 h
[1] = tested on: NOMO1; test: cell viability relative to DMSO control; higher = less cytotoxic
Method in brief: (§1)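 Library compounds in DMSO were pin-dosed into 1536-well plates (5 μl) holding NOMO1 or SEM (500 cells/well) or P12-Ichikawa (1000 cells/well) leukemia cells, across an 11-point threefold series of 47 μM to 0.79 nM. Each cell line had been adapted for at least four passages in each medium. CellTiter-Glo One luminescence was read after 48 h at 37°C. Viability is the per-plate percentage relative to DMSO wells, with cell-free wells as background.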

[2] = tested on: P12-Ichikawa; test: as above
Method in brief: as §1

[3] = tested on: SEM cells; test: as above
Method in brief: as §1

[4] = tested on: NOMO1; test: AUC of viability dose-response curve (% viability x log10 dose units); higher = less sensitive
Method in brief: (§2)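 Viability of medium-adapted leukemia cells was measured by CellTiter-Glo One luminescence after 48 h at 37°C with library compounds in DMSO. Doses were 11 threefold steps from 47 μM to 0.79 nM, in 1536-well plates at 500 or 1000 cells/well. Signals were normalised per plate to DMSO and cell-free wells and fitted with a four-parameter log-logistic model on log10 dose. Area under the curve was integrated by trapezoidal rule, with curves exceeding full viability scaled and failed quality-control curves removed.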

[5] = tested on: P12-Ichikawa; test: as above
Method in brief: as §2

[6] = tested on: SEM cells; test: as above
Method in brief: as §2

O=C(CC12CC3CC(CC(C3)C1)C2)Nc1cccc2nc(NCCNCCO)ccc12
cell viability [%]
Settings | [1] | [2] | [3]
HPLM + 10% dialyzed FBS, 0.000781 µM | 79.1 | 87.7 | 81.1
HPLM + 10% dialyzed FBS, 0.00234 µM | 95.5 | 88.7 | 82.1
HPLM + 10% dialyzed FBS, 0.00702 µM | 89.4 | 84.5 | 73.8
HPLM + 10% dialyzed FBS, 0.0211 µM | 106 | 90.8 | 96.5
HPLM + 10% dialyzed FBS, 0.0632 µM | 98 | 88.1 | 78.2
HPLM + 10% dialyzed FBS, 0.19 µM | 90.7 | 91.2 | 77.8
HPLM + 10% dialyzed FBS, 0.569 µM | 101 | 98.2 | 93.8
HPLM + 10% dialyzed FBS, 1.71 µM | 89.8 | 88.1 | 64.1
HPLM + 10% dialyzed FBS, 5.12 µM | 103 | 95.7 | 84.6
HPLM + 10% dialyzed FBS, 15.4 µM | 90.7 | 92 | 101
HPLM + 10% dialyzed FBS, 46.1 µM | 36.6 | 56.7 | 36.3
RPMI 5 mM glucose + 10% FBS, 0.000781 µM | 81.2 | 84.7 | 90.5
RPMI 5 mM glucose + 10% FBS, 0.00234 µM | 89.8 | 87.2 | 99.3
RPMI 5 mM glucose + 10% FBS, 0.00702 µM | 83.9 | 85.6 | 83.6
RPMI 5 mM glucose + 10% FBS, 0.0211 µM | 87.8 | 89.4 | 96.3
RPMI 5 mM glucose + 10% FBS, 0.0632 µM | 82.4 | 88.8 | 75.6
RPMI 5 mM glucose + 10% FBS, 0.19 µM | 90.5 | 86.3 | 76.1
RPMI 5 mM glucose + 10% FBS, 0.569 µM | 81 | 87.4 | 94.4
RPMI 5 mM glucose + 10% FBS, 1.71 µM | 87.4 | 81.9 | 83.3
RPMI 5 mM glucose + 10% FBS, 5.12 µM | 86.4 | 89.2 | 82.7
RPMI 5 mM glucose + 10% FBS, 15.4 µM | 96.4 | 94.1 | 101
RPMI 5 mM glucose + 10% FBS, 46.1 µM | 54.1 | 57.6 | 21.9
RPMI 5 mM glucose + 10% dialyzed FBS, 0.000781 µM | 73.5 | 82 | 82.8
RPMI 5 mM glucose + 10% dialyzed FBS, 0.00234 µM | 90.7 | 86.6 | 87.7
RPMI 5 mM glucose + 10% dialyzed FBS, 0.00702 µM | 83.2 | 85.7 | 65.3
RPMI 5 mM glucose + 10% dialyzed FBS, 0.0211 µM | 97.2 | 99.4 | 94.8
RPMI 5 mM glucose + 10% dialyzed FBS, 0.0632 µM | 86.7 | 91.4 | 81.6
RPMI 5 mM glucose + 10% dialyzed FBS, 0.19 µM | 80.5 | 94.8 | 72.5
RPMI 5 mM glucose + 10% dialyzed FBS, 0.569 µM | 82.4 | 90.3 | 102
RPMI 5 mM glucose + 10% dialyzed FBS, 1.71 µM | 82.3 | 85.8 | 78.7
RPMI 5 mM glucose + 10% dialyzed FBS, 5.12 µM | 77.4 | 77.6 | 94.6
RPMI 5 mM glucose + 10% dialyzed FBS, 15.4 µM | 95.3 | 93.8 | 82.6
RPMI 5 mM glucose + 10% dialyzed FBS, 46.1 µM | 57.7 | 42.4 | 40

AUC of viability dose-response curve
Settings | [4] | [5] | [6]
HPLM + 10% dialyzed FBS | 436 | 424 | 386
RPMI 5 mM glucose + 10% FBS | 406 | 410 | 405
RPMI 5 mM glucose + 10% dialyzed FBS | 399 | 412 | 392
